Laboratory results taken from publication PMC2697320, “Identification of the high affinity binding site in the Streptococcus intermedius toxin intermedilysin for its membrane receptor, the human complement regulator CD59” (Molecular Immunology, 2009).
Where no end group is shown, it is not given here.

What was measured:
[1] = system: human erythrocytes; experiment: Hemolytic assay for complement (C) activity, antibody-sensitised human erythrocytes; format: cell-based; conditions: at the dilutions used in these assays
Experimental: Hemolytic assays for C activity were performed using human erythrocytes sensitised with an in-house rabbit polyclonal antiserum against human CD55 as described ([Cole et al., 2006]). Sensitised erythrocytes (2% in CFD; 50 μl/well) were incubated for 30 min with various dilutions of human serum in CFD in the absence or presence of test peptides or blocking anti-CD59 antibodies. Plates were centrifuged and percent lysis calculated as above. Statistical analyses were carried out using unpaired Student's t-tests.

[2] = target: T1, CD59 (Homo sapiens, UniProt P13987); experiment: biochemical; format: binding; conditions: SPR steady state, immobilised CD59, 25 °C; read-out: KD, printed in Fig. 3C
T1 construct: Recombinant soluble CD59 comprising amino acids 1–76 with an 11 amino acid Ser/Gly linker; made in house
T1 sequence (P13987 26-101): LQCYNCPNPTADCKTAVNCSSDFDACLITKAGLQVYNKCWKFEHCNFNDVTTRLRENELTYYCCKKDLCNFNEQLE
Experimental: All surface plasmon resonance (SPR) analyses were carried out on a Biacore T100 (Biacore International SA, Stevenage, UK). Proteins were coupled to the sensor chip surface using thiol-based coupling chemistry. Briefly, recombinant CD59 was subjected to mild reduction for 16 h at 20 °C using TCEP at a molar ratio TCEP:CD59 of 3:1 [120 μm:40 μM] to reduce the terminal Cys residue while leaving internal disulphide bonds intact. An S-series CM5 carboxy-dextran coated chip was then activated using NHS/EDC (N-hydroxysuccinimide/1-ethyl-3(3-dimethyl aminopropyl)-carbodiimide hydrochloride) according to the manufacturer's protocol. The activated surface was further modified by flowing 80 mM 2-(2-pyridinyldithio)-ethaneamine hydrochloride (PDEA) in 0.1 M sodium borate (pH 8.5) to introduce reactive disulphide groups into the matrix. Reduced CD59 was flowed over this surface at pH 3.4 (10 mM NaCitrate) and coupling through the free amino-terminal thiol in the reduced CD59 monitored in real time. Blocking of residual activated residues was achieved by flowing 50 mM L-cysteine in 100 mM NaAcetate pH 4 containing 1 M NaCl. […] For all kinetic analyses, data were collected at 25 °C at a flow rate of 30 μl/min. […] Interactions were analysed in HBS containing 0.05% surfactant P20 and 3 mM EDTA. Data were evaluated using Biacore T100 Evaluation software.

GLAWEPWRLIYSKNDLPLVPC [ILY peptide]
lysis by peptide itself above background [1]: neither “sense” nor jumbled peptide caused any lysis above background | Kd [2]: 4.92 µM
